Measured values: ChEMBL document CHEMBL5120927, “LEGO-Lipophosphonoxins: A Novel Approach in Designing Membrane Targeting Antimicrobials” (J Med Chem, 2022)
Calls of active or inactive are those of the source.

Experiments:
Enterococcus faecalis = assay: Antibacterial activity against Enterococcus faecalis ATCC 29212 = CCM 4224 assessed as inhibition of bacterial growth incubated for 24 hrs by microdilution assay; assay type: functional
Staphylococcus aureus [1] = assay: Antibacterial activity against Staphylococcus aureus ATCC 29213 = CCM 4223 assessed as inhibition of bacterial growth incubated for 24 hrs by microdilution assay; assay type: functional
Staphylococcus aureus [2] = assay: Antibacterial activity against Staphylococcus aureus ATCC 29213 = CCM 4223 assessed as inhibition of bacterial growth incubated for 24 hrs in presence of BSA by microdilution assay; assay type: functional
Escherichia coli [3] = assay: Antibacterial activity against Escherichia coli ATCC 25922 = CCM 3954 assessed as inhibition of bacterial growth incubated for 24 hrs by microdilution assay; assay type: functional
Escherichia coli [4] = assay: Antibacterial activity against Escherichia coli ATCC 25922 = CCM 3954 assessed as inhibition of bacterial growth incubated for 24 hrs in presence of BSA by microdilution assay; assay type: functional
Pseudomonas aeruginosa [5] = assay: Antibacterial activity against Pseudomonas aeruginosa ATCC 27853 = CCM 3955 assessed as inhibition of bacterial growth incubated for 24 hrs by microdilution assay; assay type: functional
[6] = Hemolytic activity in human RBC assessed as haemoglobin release measured after 3 hr; assay type: toxicity, cell-based, Erythrocyte; conditions: red blood cells (erythrocytes)
[7] = Gradient chromatographic hydrophobicity index of the compound at pH 3.7 by HPLC analysis; assay type: ADME
[8] = test system: Staphylococcus epidermidis; assay: Antibacterial activity against Staphylococcus epidermidis CCM 7221 assessed as inhibition of bacterial growth incubated for 24 hrs by microdilution assay; assay type: functional
Staphylococcus aureus [9] = assay: Antibacterial activity against methicillin resistant Staphylococcus aureus 4591/A assessed as reduction in microbial growth incubated for 24 hrs by microdilution assay; assay type: functional
Escherichia coli [10] = assay: Antibacterial activity against multidrug-resistant Escherichia coli CE5556 expressing CTX-M-15 assessed as reduction in microbial growth incubated for 24 hrs by microdilution assay; assay type: functional
Enterococcus faecium = assay: Antibacterial activity against vancomycin resistant Enterococcus faecium 419/ANA assessed as reduction in microbial growth incubated for 24 hrs by microdilution assay; assay type: functional
Pseudomonas aeruginosa [11] = assay: Antibacterial activity against multidrug-resistant Pseudomonas aeruginosa assessed as reduction in microbial growth incubated for 24 hrs by microdilution assay; assay type: functional
Cell membrane [12] = assay: Induction of plasma membrane depolarization in Escherichia coli CCM 3954 assessed as increase in fluorescence intensity at 2.5 mg/L measured after 80 seconds by DiSC3-5 dye based spectrofluorometer method; assay type: cell membranes; conditions: time 80.0 sec
Cell membrane [13] = assay: Induction of membrane permeabilization in Escherichia coli CCM 3954 assessed as propidium iodide influx measured after 80 mins by spectrofluorometer method; conditions: dose 2.5-5 mg/L, DDE = dose-dependent effect
Lipid bilayer [14] = assay: Induction of membrane disruption of bacterial inner membrane mimic DOPE/DOPG (2:1) large unilamellar vesicles assessed as carboxyfluorescein leakage at 2.5 mg/L measured after 90 mins by spectrofluorometer analysis
Lipid bilayer [15] = assay: Induction of membrane disruption of […] membrane mimic DOPC/DOPE (2:1) large unilamellar vesicles assessed as carboxyfluorescein leakage at 2.5 mg/L measured after 90 mins by spectrofluorometer analysis
Pseudomonas aeruginosa [16] = assay: Antibacterial activity against Pseudomonas aeruginosa assessed as reduction in microbial growth measured after 20 cycles by microdilution assay; assay type: functional; conditions: Pseudomonas aeruginosa; time 24 hrs
Staphylococcus aureus [17] = assay: Antibacterial activity against antibiotic resistant Staphylococcus aureus 4740/B assessed as reduction in microbial growth incubated for 24 hrs by microdilution assay; assay type: functional
Staphylococcus aureus [18] = assay: Antibacterial activity against antibiotic resistant Staphylococcus aureus 77/CF assessed as reduction in microbial growth incubated for 24 hrs by microdilution assay; assay type: functional
Staphylococcus aureus [19] = assay: Antibacterial activity against wild type methicillin resistant Staphylococcus aureus 4561/A assessed as reduction in microbial growth incubated for 24 hrs by microdilution assay; assay type: functional
Staphylococcus aureus [20] = assay: Antibacterial activity against wild type methicillin resistant Staphylococcus aureus 4968/C assessed as reduction in microbial growth incubated for 24 hrs by microdilution assay; assay type: functional
Staphylococcus aureus [21] = assay: Antibacterial activity against wild type methicillin resistant Staphylococcus aureus 5017/C assessed as reduction in microbial growth incubated for 24 hrs by microdilution assay; assay type: functional
Staphylococcus aureus [22] = assay: Antibacterial activity against wild type Staphylococcus aureus 4557/A assessed as reduction in microbial growth incubated for 24 hrs by microdilution assay; assay type: functional
Staphylococcus aureus [23] = assay: Antibacterial activity against […] Staphylococcus aureus 4463/A assessed as reduction in microbial growth incubated for 24 hrs by microdilution assay; assay type: functional
Staphylococcus aureus [24] = assay: Antibacterial activity against wild type Staphylococcus aureus 4904/C assessed as reduction in microbial growth incubated for 24 hrs by microdilution assay; assay type: functional
Staphylococcus aureus [25] = assay: Antibacterial activity against wild type Staphylococcus aureus 4883/C assessed as reduction in microbial growth incubated for 24 hrs by microdilution assay; assay type: functional
Staphylococcus aureus [26] = assay: Antibacterial activity against […] Staphylococcus aureus 4460/A assessed as reduction in microbial growth incubated for 24 hrs by microdilution assay; assay type: functional
Staphylococcus aureus [27] = assay: Antibacterial activity against wild type Staphylococcus aureus 4482/A assessed as reduction in microbial growth incubated for 24 hrs by microdilution assay; assay type: functional
Staphylococcus aureus [28] = assay: Antibacterial activity against wild type Staphylococcus aureus 4566/A assessed as reduction in microbial growth incubated for 24 hrs by microdilution assay; assay type: functional
Staphylococcus aureus [29] = assay: Antibacterial activity against wild type Staphylococcus aureus 4504/A assessed as reduction in microbial growth incubated for 24 hrs by microdilution assay; assay type: functional
Staphylococcus aureus [30] = assay: Antibacterial activity against wild type Staphylococcus aureus 4717/B assessed as reduction in microbial growth incubated for 24 hrs by microdilution assay; assay type: functional
Staphylococcus aureus [31] = assay: Antibacterial activity against wild type Staphylococcus aureus 4738/B assessed as reduction in microbial growth incubated for 24 hrs by microdilution assay; assay type: functional
Staphylococcus aureus [32] = assay: Antibacterial activity against […] Staphylococcus aureus 4461/A assessed as reduction in microbial growth incubated for 24 hrs by microdilution assay; assay type: functional
Staphylococcus aureus [33] = assay: Antibacterial activity against wild type Staphylococcus aureus 4679/B assessed as reduction in microbial growth incubated for 24 hrs by microdilution assay; assay type: functional
Staphylococcus aureus [34] = assay: Antibacterial activity against wild type Staphylococcus aureus 4502/A assessed as reduction in microbial growth incubated for 24 hrs by microdilution assay; assay type: functional
Staphylococcus aureus [35] = assay: Antibacterial activity against wild type Staphylococcus aureus 4515/A assessed as reduction in microbial growth incubated for 24 hrs by microdilution assay; assay type: functional
Staphylococcus aureus [36] = assay: Antibacterial activity against wild type Staphylococcus aureus 5079/C assessed as reduction in microbial growth incubated for 24 hrs by microdilution assay; assay type: functional
Staphylococcus aureus [37] = assay: Antibacterial activity against wild type Staphylococcus aureus 4788/B assessed as reduction in microbial growth incubated for 24 hrs by microdilution assay; assay type: functional
Staphylococcus aureus [38] = assay: Antibacterial activity against wild type Staphylococcus aureus 78/CF assessed as reduction in microbial growth incubated for 24 hrs by microdilution assay; assay type: functional
Staphylococcus aureus [39] = assay: microbe, parasite or virus in culture; conditions: 4862/C, 24 h
Description: Antibacterial activity against wild type Staphylococcus aureus 4862/C assessed as reduction in microbial growth incubated for 24 hrs by microdilution assay

Staphylococcus aureus [40] = assay: microbe, parasite or virus in culture; conditions: 4880/C, 24 h
Description: Antibacterial activity against wild type Staphylococcus aureus 4880/C assessed as reduction in microbial growth incubated for 24 hrs by microdilution assay

Staphylococcus aureus [41] = assay: Antibacterial activity against antibiotic resistant Staphylococcus aureus 4557/A assessed as reduction in microbial growth incubated for 24 hrs by microdilution assay; assay type: functional
Staphylococcus aureus [42] = assay: Antibacterial activity against antibiotic resistant Staphylococcus aureus 4463/A assessed as reduction in microbial growth incubated for 24 hrs by microdilution assay; assay type: functional
Staphylococcus aureus [43] = assay: Antibacterial activity against antibiotic resistant Staphylococcus aureus 4904/C assessed as reduction in microbial growth incubated for 24 hrs by microdilution assay; assay type: functional
Staphylococcus aureus [44] = assay: Antibacterial activity against antibiotic resistant Staphylococcus aureus 4862/C assessed as reduction in microbial growth incubated for 24 hrs by microdilution assay; assay type: functional
Staphylococcus aureus [45] = assay: Antibacterial activity against antibiotic resistant Staphylococcus aureus 4883/C assessed as reduction in microbial growth incubated for 24 hrs by microdilution assay; assay type: functional
Staphylococcus aureus [46] = assay: Antibacterial activity against antibiotic resistant Staphylococcus aureus 4880/C assessed as reduction in microbial growth incubated for 24 hrs by microdilution assay; assay type: functional
Staphylococcus aureus [47] = assay: Antibacterial activity against antibiotic resistant Staphylococcus aureus 4460/A assessed as reduction in microbial growth incubated for 24 hrs by microdilution assay; assay type: functional
Staphylococcus aureus [48] = assay: Antibacterial activity against antibiotic resistant Staphylococcus aureus 4482/A assessed as reduction in microbial growth incubated for 24 hrs by microdilution assay; assay type: functional
Staphylococcus aureus [49] = assay: Antibacterial activity against antibiotic resistant Staphylococcus aureus 4566/A assessed as reduction in microbial growth incubated for 24 hrs by microdilution assay; assay type: functional
Staphylococcus aureus [50] = assay: Antibacterial activity against antibiotic resistant Staphylococcus aureus 4504/A assessed as reduction in microbial growth incubated for 24 hrs by microdilution assay; assay type: functional
Staphylococcus aureus [51] = assay: Antibacterial activity against antibiotic resistant Staphylococcus aureus 4717/B assessed as reduction in microbial growth incubated for 24 hrs by microdilution assay; assay type: functional
Staphylococcus aureus [52] = assay: Antibacterial activity against antibiotic resistant Staphylococcus aureus 4738/B assessed as reduction in microbial growth incubated for 24 hrs by microdilution assay; assay type: functional
Staphylococcus aureus [53] = assay: Antibacterial activity against antibiotic resistant Staphylococcus aureus 4461/A assessed as reduction in microbial growth incubated for 24 hrs by microdilution assay; assay type: functional
Staphylococcus aureus [54] = assay: Antibacterial activity against antibiotic resistant Staphylococcus aureus 4679/B assessed as reduction in microbial growth incubated for 24 hrs by microdilution assay; assay type: functional
Staphylococcus aureus [55] = assay: Antibacterial activity against antibiotic resistant Staphylococcus aureus 4502/A assessed as reduction in microbial growth incubated for 24 hrs by microdilution assay; assay type: functional
Staphylococcus aureus [56] = assay: Antibacterial activity against antibiotic resistant Staphylococcus aureus 4515/A assessed as reduction in microbial growth incubated for 24 hrs by microdilution assay; assay type: functional
Staphylococcus aureus [57] = assay: Antibacterial activity against antibiotic resistant Staphylococcus aureus 5079/C assessed as reduction in microbial growth incubated for 24 hrs by microdilution assay; assay type: functional
Staphylococcus aureus [58] = assay: Antibacterial activity against antibiotic resistant Staphylococcus aureus 4788/B assessed as reduction in microbial growth incubated for 24 hrs by microdilution assay; assay type: functional
Staphylococcus aureus [59] = assay: Antibacterial activity against antibiotic resistant Staphylococcus aureus 78/CF assessed as reduction in microbial growth incubated for 24 hrs by microdilution assay; assay type: functional

CCCCCCCCOP(=O)(CCN(CCCN)CCCN)OCCCCCCCCCCOP(=O)(CCN(CCCN)CCCN)OCCCCCCCC.Cl.Cl.Cl.Cl.Cl.Cl (stereo unspecified)
0.125 µg/mL: MIC (Staphylococcus aureus [2])
active: Activity (Cell membrane [12]) | Activity (Cell membrane [13]) Dde | Activity (Lipid bilayer [14]) | Activity (Lipid bilayer [15])
40.6: CHI [7]
3 µg/mL: MIC (Staphylococcus aureus [9])
6.4 µg/mL: HC50 at 3 h [6]
0.5 µg/mL: MIC (Enterococcus faecalis) | MIC (Staphylococcus aureus [1]) | MIC (Escherichia coli [3]) | MIC (Escherichia coli [4]) | MIC [8]
1 µg/mL: MIC (Pseudomonas aeruginosa [5]) | MIC (Escherichia coli [10]) | MIC (Enterococcus faecium) | MIC (Pseudomonas aeruginosa [11])

CC(C)(O/N=C(\C(=O)N[C@@H]1C(=O)N2C(C(=O)[O-])=C(C[n+]3ccccc3)CS[C@H]12)c1csc(N)n1)C(=O)O [CEFTAZIDIME]
128 µg/mL: MIC (Pseudomonas aeruginosa [16])

CC[C@H]1OC(=O)[C@H](C)[C@@H](O[C@H]2C[C@@](C)(OC)[C@@H](O)[C@H](C)O2)[C@H](C)[C@@H](O[C@@H]2O[C@H](C)C[C@H](N(C)C)[C@H]2O)[C@](C)(O)C[C@@H](C)C(=O)[C@H](C)[C@@H](O)[C@]1(C)O [ERYTHROMYCIN]
> 4 µg/mL: MIC (Staphylococcus aureus [19])
0.25 µg/mL: MIC (Staphylococcus aureus [22]) | MIC (Staphylococcus aureus [23]) | MIC (Staphylococcus aureus [24]) | MIC (Staphylococcus aureus [25]) | MIC (Staphylococcus aureus [26]) | MIC (Staphylococcus aureus [27]) | MIC (Staphylococcus aureus [28]) | MIC (Staphylococcus aureus [29]) | MIC (Staphylococcus aureus [30]) | MIC (Staphylococcus aureus [31]) | MIC (Staphylococcus aureus [32]) | MIC (Staphylococcus aureus [33]) | MIC (Staphylococcus aureus [35]) | MIC (Staphylococcus aureus [36]) | MIC (Staphylococcus aureus [39]) | MIC (Staphylococcus aureus [40])
0.125 µg/mL: MIC (Staphylococcus aureus [34]) | MIC (Staphylococcus aureus [37]) | MIC (Staphylococcus aureus [38])
> 16 µg/mL: MIC (Staphylococcus aureus [17]) | MIC (Staphylococcus aureus [18]) | MIC (Staphylococcus aureus [20]) | MIC (Staphylococcus aureus [21])

CC1(C)S[C@@H]2[C@H](NC(=O)Cc3ccccc3)C(=O)N2[C@H]1C(=O)O [PENICILLIN G]
1 µg/mL: MIC (Staphylococcus aureus [44]) | MIC (Staphylococcus aureus [47]) | MIC (Staphylococcus aureus [52]) | MIC (Staphylococcus aureus [53])
2 µg/mL: MIC (Staphylococcus aureus [48])
> 2 µg/mL: MIC (Staphylococcus aureus [19])
> 4 µg/mL: MIC (Staphylococcus aureus [20]) | MIC (Staphylococcus aureus [21])
0.5 µg/mL: MIC (Staphylococcus aureus [51]) | MIC (Staphylococcus aureus [54]) | MIC (Staphylococcus aureus [56]) | MIC (Staphylococcus aureus [18])
0.25 µg/mL: MIC (Staphylococcus aureus [41]) | MIC (Staphylococcus aureus [42]) | MIC (Staphylococcus aureus [43]) | MIC (Staphylococcus aureus [45]) | MIC (Staphylococcus aureus [46]) | MIC (Staphylococcus aureus [17]) | MIC (Staphylococcus aureus [49]) | MIC (Staphylococcus aureus [50]) | MIC (Staphylococcus aureus [55]) | MIC (Staphylococcus aureus [57]) | MIC (Staphylococcus aureus [58]) | MIC (Staphylococcus aureus [59])
